Article PMC3871595, “Structure Based Identification and Characterization of Flavonoids That Disrupt Human Papillomavirus-16 E6 Function” (PLoS ONE, 2013)
Entries after “also recorded” stand apart in the source; their conditions may differ.

Assays:
[1] = tested on: primary human foreskin keratinocytes; assay: p53/p21 immunoblot analysis in primary HFKs; assay type: cell-based; conditions: 40 hours
Experimental: Each compound was used to treat primary HFKs or HFKs immortalized through the over-expression of HPV16 E6 and E7 proteins.
20,000 cells per cm^2 were plated in 6-well dishes. Cells were incubated for 24 hours at which time fresh media and compound were added. After 40 hours, cells were harvested, washed with cold PBS, and lysed in RIPA buffer with protease inhibitor. Each sample was separated on a 12% SDS-page gel, transferred to Immobilon-P membrane (Millipore) and blotted for the p53 (DO-1, Santa Cruz), p21 (c-19, Santa Cruz), and actin (A2066, Sigma). Protein quantification was performed with the Fujifilm LAS-4000 Multifunctional Imaging System. The signal intensity was measured for each band on an immunoblot, normalized to the loading control, and the fold increase was determined in relation to the appropriate DMSO treated control. RNA was isolated from these cells using Trizol Reagent (Invitrogen 15596-026). cDNA was generated using the Improm-II Reverse Transcription System (Promega A3801). qPCR was performed as described in the protocol for SsoFast EvaGreen supermix (BioRad 172-5023) using an BioRad CFX96 real-time PCR machine. Melting curves for each reaction were obtained. Each sample was assayed in triplicate and every plate contained a 5-point cDNA dilution course to calculate amplification efficiency for each primer pair. The Pfaffl method was used to determine the change in transcript levels relative to the DMSO and normalized to GAPDH.

p21^Cip1/Waf1 mRNA = assay: p21 mRNA qRT-PCR; assay type: cell-based, human; conditions: relative to DMSO, normalized to GAPDH
Experimental: It is possible that the increased p53 and p21 levels resulted from non-specific inhibition of protein degradation. However, if the increase in p21 was dependent upon p53 promoter activation, it should be possible to detect changes in the amounts of p21 mRNA detected in treated cells. To confirm that the increase in p21 protein level resulted from p53 activation, the levels of p21 mRNA were analyzed using qRT-PCR.
Figure 6 Induction of p21^Cip1/Waf1 mRNA. Compounds were tested for the ability to induce p21^Cip1/Waf1 expression at the mRNA level. Relative increases in transcripts were determined by qRT-PCR. […] Fold induction was calculated in relation to treatment with DMSO and normalized to GAPDH. Data were analyzed using one-way ANOVA with post-hoc analysis (Dunnetts; S.E.M.; n=2). Statistical significance (p<0.01) is indicated as * in comparison to Caski control (DMSO), # E6/E7 HFK control (DMSO), § HFK control (DMSO), and ◙ for RPE-1 control (DMSO).
20,000 cells per cm^2 were plated in 6-well dishes. Cells were incubated for 24 hours at which time fresh media and compound were added. […] Protein quantification was performed with the Fujifilm LAS-4000 Multifunctional Imaging System. The signal intensity was measured for each band on an immunoblot, normalized to the loading control, and the fold increase was determined in relation to the appropriate DMSO treated control. […]

Caski cells = assay: cell viability (MTS, Celltiter 96 AQueous) Caski; assay type: cell-based, human; conditions: 48 to 96 hours, relative to DMSO
E6/E7 HFKs = assay: cell viability (MTS, Celltiter 96 AQueous) E6/E7 HFKs; assay type: cell-based, human; conditions: 48 to 96 hours, relative to DMSO
[2] = tested on: Caski, HeLa, RPE-1, C33a and HaCat cells; assay: cell number and morphology (bright field microscopy); assay type: cell-based, human; conditions: 72 hours
[3] = tested on: HPV-16 E6 mediated p53 degradation; assay: in vitro HPV-16 E6 mediated p53 degradation assay; assay type: biochemical
Experimental: In vitro expressed p53 was incubated in rabbit reticulocyte lysate in the presence or absence of in vitro expressed HPV16 E6. p53 levels were reduced in reaction containing E6 proteins (Figure 8 ).
Control reactions (no DNA, p53 alone) were incubated with 1 µL wheat germ extract and 2% DMSO in reaction buffer. In vitro translated p53 and rabbit reticulocyte lysate (RRL, Promega) were added to all reactions except the no DNA control reaction to which wheat germ extract was added instead of p53. Reactions were incubated for 3 hrs at 30°C and stopped by addition of 6X reducing SDS sample buffer and heating at 95°C for 5 min. Each reaction was loaded onto a 10% SDS-PAGE gel and transferred onto PVDF (0.45 µm). p53 and 16E6 were visualized using monoclonal p53 (Pab1801, 1:1000), monoclonal 16E6 (813, Arbor Vita Corporation, 1:4000) antibody and anti-mouse HRP-labeled secondary antibody (1:2000, Sigma-Aldrich).

[4] = solubility in aqueous SPR buffers; assay type: physicochemical; conditions: for aqueous solubility (in words): simple aqueous solution
[5] = 100 µM compound pre-incubated with E6

Compound	p21 protein levels [1]	p53 protein levels [1]	p21 mRNA level (p21^Cip1/Waf1 mRNA)	cell growth and viability (Caski cells)	cell growth and viability (E6/E7 HFKs)	number of cells per well [2]	effect on E6 mediated p53 degradation [3, 5]	solubility ([4]; aqueous SPR buffers, read-out: concentration soluble in the appropriate buffers)	aqueous solubility (in words) [4]	cell morphology ([2]; luteolin @ 50µM)	effect on E6 mediated p53 degradation ([3]; 10 µM compound pre-incubated with E6)
O=c1cc(-c2ccc(O)c(O)c2)oc2cc(O)cc(O)c12 [luteolin, reference compound]	E6 independent increase in p53 and p21	E6 independent increase in p53 and p21	increase in p21 mRNA	potent inhibitor of Caski, E6/E7 HFKs, and HeLa growth	potent inhibitor of Caski, E6/E7 HFKs, and HeLa growth	dramatic decrease in the number of cells per well	decrease in p53 was not observed	< 20 µM	poor solubility		
COc1cccc(-c2cc(=O)c3cc(-c4nnn[nH]4)ccc3o2)c1 [CAF-24]	little effect on p53 and p21 levels	little effect on p53 and p21 levels	increase in p21 mRNA	selectively inhibited growth	selectively inhibited growth	decreased Caski and HeLa cell numbers	stabilized p53		poor solubility; also recorded: limited aqueous solubility	no change in cell morphology	stabilized p53
